Laboratory results from ChEMBL document CHEMBL1944514, “Fluorescence detection of single nucleotide polymorphisms using nucleic acid probe containing tricyclic base-linked acyclonucleoside” (Bioorg Med Chem Lett, 2012).
Calls of active or inactive are those of the source. The calls are words filed in the database; no cut-off is given here.

Tests used:
Assay type in all cases: nucleic-acid assay
Nucleic Acid [1] = assay: Binding affinity to 3'-r(CUUCCAGUUACAUAGAGA)-5' RNA assessed as change in melting temperature by spectrophotometry
Nucleic Acid [2] = assay: Binding affinity to 3'-r(CUUCCAGUUGCAUAGAGA)-5' RNA assessed as change in melting temperature by spectrophotometry
Nucleic Acid [3] = assay: Binding affinity to 3'-r(CUUCCAGUUCCAUAGAGA)-5' RNA assessed as change in melting temperature by spectrophotometry
Nucleic Acid [4] = assay: Binding affinity to 3'-r(CUUCCAGUUUCAUAGAGA)-5' RNA assessed as change in melting temperature by spectrophotometry
Nucleic Acid [5] = assay: Binding affinity to 3'-r(CUUCCAGUUACAUAGAGA)-5' RNA assessed as fluorescence quenching by spectrophotometry
Nucleic Acid [6] = assay: Binding affinity to 3'-r(CUUCCAGUUGCAUAGAGA)-5' RNA assessed as fluorescence quenching by spectrophotometry
Nucleic Acid [7] = assay: Binding affinity to 3'-r(CUUCCAGUUCCAUAGAGA)-5' RNA assessed as fluorescence quenching by spectrophotometry
Nucleic Acid [8] = assay: Binding affinity to 3'-r(CUUCCAGUUUCAUAGAGA)-5' RNA assessed as fluorescence quenching by spectrophotometry

Row | Structure (SMILES) | ΔTm (Nucleic Acid [1]) [°C] | ΔTm (Nucleic Acid [2]) [°C] | Activity (Nucleic Acid [3]) | ΔTm (Nucleic Acid [4]) [°C] | Activity (Nucleic Acid [5]) | Activity (Nucleic Acid [6]) | Activity (Nucleic Acid [7]) | Activity (Nucleic Acid [8]) | ΔTm (Nucleic Acid [3]) [°C] | Activity (Nucleic Acid [4]) | Activity (Nucleic Acid [1])
1 | Cc1cn([C@H]2C[C@H](OP(=O)(O)OC[C@H]3O[C@@H](n4ccc(N)nc4=O)C[C@@H]3OP(=O)(O)OC[C@H]3O[C@@H](n4cnc5c(N)ncnc54)C[C@@H]3OP(=O)(O)OC[C@H]3O[C@@H](n4cnc5c(N)ncnc54)C[C@@H]3OP(=O)(O)OC[C@H](Cn3cnc4cc5c(N)nc(N)nc5nc43)OP(=O)(O)OC[C@H]3O[C@@H](n4cnc5c(=O)[nH]c(N)nc54)C[C@@H]3OP(=O)(O)OC[C@H]3O[C@@H](n4cnc5c(=O)[nH]c(N)nc54)C[C@@H]3OP(=O)(O)CC[C@H]3O[C@@H](n4cc(C)c(=O)[nH]c4=O)C[C@@H]3OP(=O)(O)OC[C@H]3O[C@@H](n4cnc5c(N)ncnc54)C[C@@H]3OP(=O)(O)OC[C@H]3O[C@@H](n4cc(C)c(=O)[nH]c4=O)C[C@@H]3OP(=O)(O)OC[C@H]3O[C@@H](n4ccc(N)nc4=O)C[C@@H]3OP(=O)(O)OC[C@H]3O[C@@H](n4cc(C)c(=O)[nH]c4=O)C[C@@H]3OP(=O)(O)OC[C@H]3O[C@@H](n4ccc(N)nc4=O)C[C@@H]3OP(=O)(O)OC[C@H]3O[C@@H](n4cc(C)c(=O)[nH]c4=O)C[C@@H]3O)[C@@H](COP(=O)(O)O[C@H]3C[C@H](n4cnc5c(=O)[nH]c(N)nc54)O[C@@H]3COP(=O)(O)O[C@H]3C[C@H](n4cnc5c(=O)[nH]c(N)nc54)O[C@@H]3COP(=O)(O)O[C@H]3C[C@H](n4cnc5c(N)ncnc54)O[C@@H]3COP(=O)(O)O[C@H]3C[C@H](n4cnc5c(N)ncnc54)O[C@@H]3COP(=O)(O)O[C@H]3C[C@H](n4cnc5c(=O)[nH]c(N)nc54)O[C@@H]3CO)O2)c(=O)nc1N | -5.9 | -4.3 | inactive | -4.6 | Active | Active | inactive | Active | – | – | –
2 | Cc1cn([C@H]2C[C@H](OP(=O)(O)OC[C@H]3O[C@@H](n4ccc(N)nc4=O)C[C@@H]3OP(=O)(O)OC[C@H]3O[C@@H](n4cnc5c(N)ncnc54)C[C@@H]3OP(=O)(O)OC[C@H]3O[C@@H](n4cnc5c(N)ncnc54)C[C@@H]3OP(=O)(O)OC[C@H]3O[C@@H](n4cnc5c(N)ncnc54)C[C@@H]3OP(=O)(O)OC[C@H](Cn3cnc4cc5c(N)nc(N)nc5nc43)OP(=O)(O)OC[C@H]3O[C@@H](n4cnc5c(=O)[nH]c(N)nc54)C[C@@H]3OP(=O)(O)CC[C@H]3O[C@@H](n4cc(C)c(=O)[nH]c4=O)C[C@@H]3OP(=O)(O)OC[C@H]3O[C@@H](n4cnc5c(N)ncnc54)C[C@@H]3OP(=O)(O)OC[C@H]3O[C@@H](n4cc(C)c(=O)[nH]c4=O)C[C@@H]3OP(=O)(O)OC[C@H]3O[C@@H](n4ccc(N)nc4=O)C[C@@H]3OP(=O)(O)OC[C@H]3O[C@@H](n4cc(C)c(=O)[nH]c4=O)C[C@@H]3OP(=O)(O)OC[C@H]3O[C@@H](n4ccc(N)nc4=O)C[C@@H]3OP(=O)(O)OC[C@H]3O[C@@H](n4cc(C)c(=O)[nH]c4=O)C[C@@H]3O)[C@@H](COP(=O)(O)O[C@H]3C[C@H](n4cnc5c(=O)[nH]c(N)nc54)O[C@@H]3COP(=O)(O)O[C@H]3C[C@H](n4cnc5c(=O)[nH]c(N)nc54)O[C@@H]3COP(=O)(O)O[C@H]3C[C@H](n4cnc5c(N)ncnc54)O[C@@H]3COP(=O)(O)O[C@H]3C[C@H](n4cnc5c(N)ncnc54)O[C@@H]3COP(=O)(O)O[C@H]3C[C@H](n4cnc5c(=O)[nH]c(N)nc54)O[C@@H]3CO)O2)c(=O)nc1N | -2.3 | -2.1 | – | – | Active | Active | Active | inactive | -2 | inactive | –
3 | Cc1cn([C@H]2C[C@H](OP(=O)(O)OC[C@H]3O[C@@H](n4ccc(N)nc4=O)C[C@@H]3OP(=O)(O)OC[C@H]3O[C@@H](n4cnc5c(N)ncnc54)C[C@@H]3OP(=O)(O)OC[C@H]3O[C@@H](n4cnc5c(N)ncnc54)C[C@@H]3OP(=O)(O)OC[C@H]3O[C@@H](n4cnc5c(N)ncnc54)C[C@@H]3OP(=O)(O)OC[C@H](Cn3cnc4cc5c(N)ncnc5nc43)OP(=O)(O)OC[C@H]3O[C@@H](n4cnc5c(=O)[nH]c(N)nc54)C[C@@H]3OP(=O)(O)CC[C@H]3O[C@@H](n4cc(C)c(=O)[nH]c4=O)C[C@@H]3OP(=O)(O)OC[C@H]3O[C@@H](n4cnc5c(N)ncnc54)C[C@@H]3OP(=O)(O)OC[C@H]3O[C@@H](n4cc(C)c(=O)[nH]c4=O)C[C@@H]3OP(=O)(O)OC[C@H]3O[C@@H](n4ccc(N)nc4=O)C[C@@H]3OP(=O)(O)OC[C@H]3O[C@@H](n4cc(C)c(=O)[nH]c4=O)C[C@@H]3OP(=O)(O)OC[C@H]3O[C@@H](n4ccc(N)nc4=O)C[C@@H]3OP(=O)(O)OC[C@H]3O[C@@H](n4cc(C)c(=O)[nH]c4=O)C[C@@H]3O)[C@@H](COP(=O)(O)O[C@H]3C[C@H](n4cnc5c(=O)[nH]c(N)nc54)O[C@@H]3COP(=O)(O)O[C@H]3C[C@H](n4cnc5c(=O)[nH]c(N)nc54)O[C@@H]3COP(=O)(O)O[C@H]3C[C@H](n4cnc5c(N)ncnc54)O[C@@H]3COP(=O)(O)O[C@H]3C[C@H](n4cnc5c(N)ncnc54)O[C@@H]3COP(=O)(O)O[C@H]3C[C@H](n4cnc5c(=O)[nH]c(N)nc54)O[C@@H]3CO)O2)c(=O)nc1N | – | – | – | – | Active | Active | Active | inactive | – | – | –

Further lines, results first:

Row | ΔTm (Nucleic Acid [1]) [°C] | ΔTm (Nucleic Acid [2]) [°C] | Activity (Nucleic Acid [3]) | ΔTm (Nucleic Acid [4]) [°C] | Activity (Nucleic Acid [5]) | Activity (Nucleic Acid [6]) | Activity (Nucleic Acid [7]) | Activity (Nucleic Acid [8]) | ΔTm (Nucleic Acid [3]) [°C] | Activity (Nucleic Acid [4]) | Activity (Nucleic Acid [1]) | Structure (SMILES)
4 | – | -1.9 | – | -1.8 | inactive | inactive | Active | Active | -3.5 | – | inactive | Cc1cn([C@H]2C[C@H](OP(=O)(O)OC[C@H]3O[C@@H](n4ccc(N)nc4=O)C[C@@H]3OP(=O)(O)OC[C@H]3O[C@@H](n4cnc5c(N)ncnc54)C[C@@H]3OP(=O)(O)OC[C@H]3O[C@@H](n4cnc5c(N)ncnc54)C[C@@H]3OP(=O)(O)OC[C@H](Cn3cnc4cc5c(N)nc(N)nc5nc43)OP(=O)(O)OC[C@H]3O[C@@H](n4cc(C)c(=O)[nH]c4=O)C[C@@H]3OP(=O)(O)OC[C@H]3O[C@@H](n4cnc5c(=O)[nH]c(N)nc54)C[C@@H]3OP(=O)(O)CC[C@H]3O[C@@H](n4cc(C)c(=O)[nH]c4=O)C[C@@H]3OP(=O)(O)OC[C@H]3O[C@@H](n4cnc5c(N)ncnc54)C[C@@H]3OP(=O)(O)OC[C@H]3O[C@@H](n4cc(C)c(=O)[nH]c4=O)C[C@@H]3OP(=O)(O)OC[C@H]3O[C@@H](n4ccc(N)nc4=O)C[C@@H]3OP(=O)(O)OC[C@H]3O[C@@H](n4cc(C)c(=O)[nH]c4=O)C[C@@H]3OP(=O)(O)OC[C@H]3O[C@@H](n4ccc(N)nc4=O)C[C@@H]3OP(=O)(O)OC[C@H]3O[C@@H](n4cc(C)c(=O)[nH]c4=O)C[C@@H]3O)[C@@H](COP(=O)(O)O[C@H]3C[C@H](n4cnc5c(=O)[nH]c(N)nc54)O[C@@H]3COP(=O)(O)O[C@H]3C[C@H](n4cnc5c(=O)[nH]c(N)nc54)O[C@@H]3COP(=O)(O)O[C@H]3C[C@H](n4cnc5c(N)ncnc54)O[C@@H]3COP(=O)(O)O[C@H]3C[C@H](n4cnc5c(N)ncnc54)O[C@@H]3COP(=O)(O)O[C@H]3C[C@H](n4cnc5c(=O)[nH]c(N)nc54)O[C@@H]3CO)O2)c(=O)nc1N
5 | – | – | – | – | inactive | inactive | Active | Active | – | – | – | Cc1cn([C@H]2C[C@H](OP(=O)(O)OC[C@H]3O[C@@H](n4ccc(N)nc4=O)C[C@@H]3OP(=O)(O)OC[C@H]3O[C@@H](n4cnc5c(N)ncnc54)C[C@@H]3OP(=O)(O)OC[C@H]3O[C@@H](n4cnc5c(N)ncnc54)C[C@@H]3OP(=O)(O)OC[C@H](Cn3cnc4cc5c(N)ncnc5nc43)OP(=O)(O)OC[C@H]3O[C@@H](n4cc(C)c(=O)[nH]c4=O)C[C@@H]3OP(=O)(O)OC[C@H]3O[C@@H](n4cnc5c(=O)[nH]c(N)nc54)C[C@@H]3OP(=O)(O)CC[C@H]3O[C@@H](n4cc(C)c(=O)[nH]c4=O)C[C@@H]3OP(=O)(O)OC[C@H]3O[C@@H](n4cnc5c(N)ncnc54)C[C@@H]3OP(=O)(O)OC[C@H]3O[C@@H](n4cc(C)c(=O)[nH]c4=O)C[C@@H]3OP(=O)(O)OC[C@H]3O[C@@H](n4ccc(N)nc4=O)C[C@@H]3OP(=O)(O)OC[C@H]3O[C@@H](n4cc(C)c(=O)[nH]c4=O)C[C@@H]3OP(=O)(O)OC[C@H]3O[C@@H](n4ccc(N)nc4=O)C[C@@H]3OP(=O)(O)OC[C@H]3O[C@@H](n4cc(C)c(=O)[nH]c4=O)C[C@@H]3O)[C@@H](COP(=O)(O)O[C@H]3C[C@H](n4cnc5c(=O)[nH]c(N)nc54)O[C@@H]3COP(=O)(O)O[C@H]3C[C@H](n4cnc5c(=O)[nH]c(N)nc54)O[C@@H]3COP(=O)(O)O[C@H]3C[C@H](n4cnc5c(N)ncnc54)O[C@@H]3COP(=O)(O)O[C@H]3C[C@H](n4cnc5c(N)ncnc54)O[C@@H]3COP(=O)(O)O[C@H]3C[C@H](n4cnc5c(=O)[nH]c(N)nc54)O[C@@H]3CO)O2)c(=O)nc1N
